Measured values as given in PMC8869655, “Identification of the Kinase-Substrate Recognition Interface between MYPT1 and Rho-Kinase” (Biomolecules, 2022).
Residues, ends and D or L forms follow the SMILES beside them. No end group written: not given here.

Assays:
[1] = target: T1, GST-Rho-kinase-cat-L (bovine, residues 6–553) (Bos taurus, UniProt Q28021); assay: In vitro kinase assay, Rho-kinase-cat-L activity; assay type: biochemical; conditions: for Inhibition of Rho-kinase-cat-L activity (in words) / IC50: S6 rsk substrate peptide as substrate, 50 μM γ-[32P]ATP, 30 °C, scintillation counting, N = 3; for Inhibition of Rho-kinase-cat-L activity (in words): inhibitor at the indicated concentrations; for IC50: 10–20 min, cation-exchange membrane
T1 construct: GST-Rho-kinase-cat-L (bovine, residues 6–553); made in house; host or cells: Sf9 cells (baculovirus)
Method: The kinase reactions were performed in 50 μL of a reaction mixture (25 mM Tris-HCl, pH 7.5, 1 mM EDTA, 1 mM EGTA, 1 mM DTT, 5 mM MgCl2, and 50 μM γ-[^32P]ATP [1–20 GBq/mmol]), GST-Rho-kinase-cat-L or other kinases (1–10 nM), and substrates for 10–20 min at 30 °C. The reaction mixtures were applied to cation-exchange membranes and washed with 75 mM phosphoric acid three times, which was followed by scintillation counting.
Figure 4 Direct inhibition of Rho-kinase activity in vitro. (A) In vitro phosphorylation of S6 rsk substrate peptide by Rho-kinase. GST-Rho-kinase-cat-L or GST-ROCK1-cat-L activity was examined using the S6 rsk substrate peptide as a substrate in the presence of γ-[^32P]ATP. GST-MYPT1-684–868 aa-WT or -4A was added at the indicated concentrations. The reaction mixtures were applied onto cation-exchange membranes, followed by scintillation counting. N = 3. (B) Effects of the deletion of DMs on the inhibition of Rho-kinase activity in vitro. GST-Rho-kinase-cat-L activity was examined using the S6 rsk substrate peptide as a substrate in the presence of γ-[^32P]ATP. GST-MYPT1-684–868-4A with or without DMs was added at the indicated concentrations. The reaction mixtures were applied onto cation-exchange membranes, followed by scintillation counting. N = 3. The deletion of DM1 or DM2 moderately weakened the inhibitory effect and the deletion of both DM1 and DM2 completely abrogated the inhibitory effects of the MYPT1 fragment on the Rho-kinase activity. (C) Sequences of the DMs and phosphorylation sites of MYPT1. The sequences of MYPT1 683–715 aa and 836-860 aa and synthetic peptides are shown. Basic (blue), acidic (red), and aliphatic (green) amino acids within DMs are indicated. Phosphorylation sites are replaced by Ala in pseudosubstrate (PS) peptides. (D) Inhibition of Rho-kinase activity by PS2 + DM2 synthetic peptide. GST-Rho-kinase-cat-L activity was examined using the S6 rsk substrate peptide as a substrate in the presence of γ-[^32P]ATP. Synthetic peptides were added at the indicated concentrations. The reaction mixtures were applied onto cation-exchange membranes, followed by scintillation counting. N = 3. (E) Inhibition of Rho-kinase activity by PS1 + DM3 synthetic peptide. GST-Rho-kinase-cat-L activity was examined using the S6 rsk substrate peptide as a substrate in the presence of γ-[^32P]ATP. Synthetic peptides were added at the indicated concentrations. The reaction mixtures were applied onto cation-exchange membranes, followed by scintillation counting. N = 3.

[2] = target: T1, GST-Rho-kinase-cat-L (bovine, residues 6–553); assay: In vitro kinase assay, Rho-kinase-cat-L activity; assay type: biochemical; conditions: synthetic peptide at the indicated concentrations, Figure S4, N=3
[3] = target: GFP-Rho-kinase-cat-L (6–553 aa, long form of catalytic fragment) (bovine)

T1 sequence (Q28021 6-553): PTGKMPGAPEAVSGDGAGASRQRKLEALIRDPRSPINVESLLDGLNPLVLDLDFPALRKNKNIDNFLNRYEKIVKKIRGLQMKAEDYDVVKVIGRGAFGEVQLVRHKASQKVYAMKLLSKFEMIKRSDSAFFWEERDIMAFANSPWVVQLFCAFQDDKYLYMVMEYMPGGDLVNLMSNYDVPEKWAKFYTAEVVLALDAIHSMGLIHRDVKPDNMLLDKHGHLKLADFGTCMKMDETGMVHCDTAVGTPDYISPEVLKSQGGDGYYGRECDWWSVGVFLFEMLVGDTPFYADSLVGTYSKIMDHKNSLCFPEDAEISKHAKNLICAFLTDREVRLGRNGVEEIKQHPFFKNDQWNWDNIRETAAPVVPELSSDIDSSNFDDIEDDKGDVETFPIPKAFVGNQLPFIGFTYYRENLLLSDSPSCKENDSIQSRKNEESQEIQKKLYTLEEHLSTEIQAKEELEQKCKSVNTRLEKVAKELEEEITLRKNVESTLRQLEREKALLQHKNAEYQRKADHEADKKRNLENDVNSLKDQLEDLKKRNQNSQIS

IC50 [1] [µM] | Molecule | Inhibition of Rho-kinase-cat-L activity (in words) [1] | also measured
– | QSRRAAQGVTLTDLQEAEKTIGRS [PS1 + DM1, synthetic peptide, MYPT1 692–715 aa, pseudosubstrate 1 plus docking motif 1] | did not show an inhibitory effect | Inhibition of Rho-kinase activity at higher concentration (in words) ([1]; 100 μM peptide, data not shown): mild inhibitory effect
– | KSQPKSIRERRRPR [DM2, synthetic peptide, MYPT1 836–849 aa, docking motif 2] | moderately inhibited | –
< 1 | CC[C@H](C)[C@H](NC(=O)[C@H](CO)NC(=O)[C@H](CCCCN)NC(=O)[C@@H]1CCCN1C(=O)[C@H](CCC(N)=O)NC(=O)[C@H](CO)NC(=O)[C@@H](N)CCCCN)C(=O)N[C@@H](CCCNC(=N)N)C(=O)N[C@@H](CCC(=O)O)C(=O)N[C@@H](CCCNC(=N)N)C(=O)N[C@@H](CCCNC(=N)N)C(=O)N[C@@H](CCCNC(=N)N)C(=O)N1CCC[C@H]1C(=O)N[C@@H](CCCNC(=N)N)C(=O)N[C@@H](CCC(=O)O)C(=O)N[C@@H](CCCCN)C(=O)N[C@@H](CCCNC(=N)N)C(=O)N[C@@H](CCCNC(=N)N)C(=O)N[C@@H](C)C(=O)N[C@@H](C)C(=O)NCC(=O)N[C@H](C(=O)N[C@@H](CO)C(=O)N[C@@H](Cc1ccccc1)C(=O)N[C@@H](Cc1c[nH]c2ccccc12)C(=O)O)C(C)C [PS2 + DM2] (H-KSQPKSIRERRRPREKRRAAGVSFW-OH; N-terminus and C-terminus assumed) | strongly inhibited | Inhibition of phosphorylation of MLC by Rho-kinase ([2]; substrate GST-MLC (1 µM)): inhibited; Inhibition of phosphorylation of MYPT1 by Rho-kinase ([2]; substrate GST-MYPT1-684-868 aa (0.5 µM)): inhibited; Inhibition of phosphorylation of Scrib by Rho-kinase ([2]; substrate GST-Scrib-C (1235-1630 aa) (1 µM)): inhibited
< 1 | CC(C)C[C@H](NC(=O)[C@@H](NC(=O)[C@@H](NC(=O)CNC(=O)[C@H](CCC(N)=O)NC(=O)[C@H](C)NC(=O)[C@H](C)NC(=O)[C@H](CCCNC(=N)N)NC(=O)[C@H](CCCNC(=N)N)NC(=O)[C@H](CO)NC(=O)[C@H](CCC(N)=O)NC(=O)[C@H](CCCNC(=N)N)NC(=O)[C@H](C)NC(=O)[C@H](CCC(N)=O)NC(=O)[C@H](CCCNC(=N)N)NC(=O)[C@H](CO)NC(=O)[C@H](CCCNC(=N)N)NC(=O)[C@H](C)NC(=O)[C@H](CCCCN)NC(=O)[C@@H](N)CCCNC(=N)N)C(C)C)[C@@H](C)O)C(=O)N[C@H](C(=O)O)[C@@H](C)O [PS1 + DM3] (H-RKARSRQARQSRRAAQGVTLT-OH; N-terminus and C-terminus assumed) | inhibited Rho-kinase activity to a similar extent as PS2 + DM2 | –
– | RKARSRQARQSRRAAQGVTLT (not fully specified) [PS1 + DM3 synthetic peptide (MYPT1 683–703 aa)] | – | IC50 of inhibition of the in vitro kinase activity of GST-Rho-kinase-cat-L on the S6 rsk substrate peptide (Figure 4E) [3]: < 1 µM
– | KSQPKSIRERRRPREKRRAAGVSFW (not fully specified) [PS2 + DM2 synthetic peptide (MYPT1 836–860 aa)] | – | IC50 of inhibition of the in vitro kinase activity of GST-Rho-kinase-cat-L on the S6 rsk substrate peptide (Figure 4D) [3]: < 1 µM
